{
  "source": "patent US8912142B2",
  "about": "“Method of regulating proliferation and differentiation of keratinocyes” (The Medical Research, Infrastructure and Health Services …, priority 2009, dated 2014)",
  "key": {"[1]": {"tested_on": "three-dimensional organotypic skin equivalents", "assay": "H&E staining of organotypic skin equivalents", "format": "cell-based, human", "details": "day 14", "protocol": "The present inventors used a three-dimensional organotypic cell culture system to model the role of decreased IGFBP7 expression in the pathogenesis of psoriasis (FIGS. 18 and 19). In this model system, keratinocytes are grown at the air liquid interface on a support consisting of collagen and fibroblasts for up to 2 weeks. During this time, keratinocytes fully differentiate, forming a multilayered, cornified epithelium which faithfully replicates most physiological aspects of normal epidermal biology. The present inventors established the conditions necessary to grow such three-dimensional skin equivalents. Histological and immunohistochemical analyses confirmed the existence of a legitimate differentiation program in these cultures. […] At day 12, the stratum corneum was thickened and desquamation, i.e., detachment of cornified keratinocytes, occurred (FIG. 20).\nTo confirm the physiological relevance of these findings in keratinocyte monolayers, the present inventors suppressed the expression of IGFBP7 by RNA interference in skin organotypic cultures. […] Punch biopsies were also taken at day 7 for RNA extraction, transcribed to cDNA and analyzed by qRT-PCR for IGFBP7 mRNA expression. IGFBP7 specific siRNA suppressed IGFBP7 expression to less than 60% of the normal level in skin equivalents as measured at day 7 (data not shown). […]"}, "[2]": {"tested_on": "primary human keratinocytes", "assay": "MTT assay (cell viability) in primary keratinocytes", "format": "cell-based", "protocol": "(§1) FIGS. 3A-F depict viability and proliferation assays of keratinocytes. […] Data represent mean values±SD of three independent experiments. Asterisk, p<0.01 compared with control cells. FIG. 3B—HaCat cells stably expressing an IGFBP7-specific shRNA or a control shRNA were assessed using the BrDu assay (stable transfection). Data represent mean values±SD of three independent experiments. Asterisk, p<0.01 compared with control cells. FIGS. 3C and D—KRT6a mRNA and protein levels were assessed by qRT-PCR (FIG. 3C) and immunoblotting (FIG. 3D) in HaCat cells stably expressing an IGFBP7-specific shRNA or a control shRNA. FIGS. 3E and F—Primary keratinocytes were transiently transfected with IGFBP7-specific siRNA (IGFBP7) or with control siRNA (control) and assessed using the MTT assay (FIG. 3E; 24 and 48 hours post transfection) and the BrDu assay (FIG. 3F; 24 hours post transfection). Data represent mean values±SD of three independent experiments (Asterisk, p<0.01 compared with control cells).\n(§2) FIGS. 6A-C depict cell viability and proliferation assays of primary keratinocytes which exogenously express IGFBP7. […] FIGS. 6A-B—Cell viability and proliferation were assessed using the MTT (FIG. 6A) and BrDU (FIG. 6B) assays. FIG. 6C—Apoptosis was quantitated by TUNEL assay. […]"}, "[3]": {"tested_on": "primary human keratinocytes", "assay": "TUNEL apoptosis assay in primary keratinocytes", "format": "cell-based", "protocol": "FIGS. 4A-C depict apoptosis assays in HaCat or primary keratinocyte cells. FIGS. 4A-B—HaCat cells stably expressing IGFBP7-specific (IGFBP7) or control shRNA (Co) (scrambled control), were exposed to 10 ng/μl of recombinant tumor necrosis factor-alpha (TNF-α) (+) or vehicle (−) 24 hours after transfection. Apoptosis was measured using the TUNEL assay (FIG. 4A) or the Annexin V assay (FIG. 4B). FIG. 4C—Primary keratinocytes were transiently transfected with IGFBP7-specific siRNA (IGFBP7) or with scrambled control siRNA (Co) and exposed to 10 ng/μl of recombinant TNF-α (+) or vehicle (−). Apoptotic activity was assessed by the TUNEL assay. All experiments were repeated three times. Results are provided as mean values±SD. […]\nas §2\nApoptosis was assessed using the TUNEL kit (Roche, Mannheim, Germany) according to the manufacturer's protocol. […] More than 1,000 cells were counted for each slide and examined under a fluorescent microscope Zeiss Axioscope 2 (Carl Zeiss MicroImaging, Inc., Thornwood, N.Y.). […] Differences in apoptotic activity were considered significant at p-values <0.01 calculated using a standard Student's t-test."}, "HaCat cells": {"tested_on": "HaCat cells", "assay": "MTT assay (cell viability) in HaCat cells", "format": "cell-based, human", "details": "siRNA, cultured 24 and 72 hours", "protocol": "as §1\nThe MTT test is based on the selective ability of living cells to reduce the yellow salt MTT (3-(4,5-dimethylthiazolyl-2)-2,5-diphenyltetrazolium bromide) (Sigma, Aldrich St Louis, Mo., USA) to a purple-blue insoluble formazan precipitate. […] The supernatants were collected and then scanned with an ELISA reader Zenyth 200 (Anthos Labtec, Cambridge, UK) at 560 nm."}, "IGFBP7": {"tested_on": "IGFBP7", "assay": "qRT-PCR of IGFBP7 mRNA in organotypic skin equivalents", "format": "cell-based, human", "protocol": "RNA was extracted from cultured cells using an RNA extraction kit (Roche Mannheim, Germany). cDNA was synthesized from 500 ng of total RNA using the Reverse-iT first strand synthesis kit (ABgene, Epson, UK) and random hexamers. cDNA PCR amplification was carried out using the SYBR Green JumpStart Taq ReadyMix (Sigma-Aldrich, St Louis, Mo., USA) on a M×3000 p/5 p multifilter system (Stratagene, Cedar Creek, Tex., USA) with gene-specific intron-crossing oligonucleotide pairs listed in Table 2 below. To ensure the specificity of the reaction conditions, at the end of the individual runs, the melting temperature (Tm) of the amplified products was measured to confirm its homogeneity. […] Each sample was analyzed in triplicate. For quantification, standard curves were obtained using serially diluted cDNA amplified in the same real-time PCR run. […] After the quantification procedure, the products were resolved by 2.5% agarose gel electrophoresis to confirm that the reaction had amplified DNA fragments of expected size.\nTo confirm the physiological relevance of these findings in keratinocyte monolayers, the present inventors suppressed the expression of IGFBP7 by RNA interference in skin organotypic cultures. […] Punch biopsies were also taken at day 7 for RNA extraction, transcribed to cDNA and analyzed by qRT-PCR for IGFBP7 mRNA expression. […]"}, "[4]": {"tested_on": "primary human keratinocytes", "assay": "BrDu incorporation assay (proliferation) in primary keratinocytes", "format": "cell-based", "protocol": "as §1, with “Data represent mean values±SD of three independent experiments (Asterisk, p<0.01 compared with control cells).” left out\nas §2\nThe incorporation rate of BrdU was determined by Cell Proliferation ELISA BrdU colorimetric kit (Roche, Mannheim, Germany) according to manufacturer's protocol. Absorbance at 450 nm was measured using an ELISA reader. […]"}, "[5]": {"tested_on": "primary keratinocytes transfected with IGFBP7 siRNA", "assay": "ERK inhibition, proliferation of IGFBP7-silenced primary keratinocytes", "format": "cell-based, human", "details": "120 μM for 72 hours, medium refreshed every 24 hours", "protocol": "FIG. 17 is a histogram depicting the effect of ERK inhibition on primary keratinocytes proliferation in IFGBP7-silenced cells and control cells. Primary keratinocytes which were transfected with IGFBP7 siRNA were treated with 120 μM PD98059 (ERK inhibitor) for 72 hours, while refreshing the medium every 24 hours. Note that ERK inhibition attenuates cell proliferation induced by IGFBP7 down-regulation (p<0.01).\nTo further investigate the involvement of ERK in IGFBP7-mediated cell proliferation primary keratinocytes which were transfected with IGFBP7 siRNA were treated with the ERK inhibitor PD98059 (120 μM for 72 hours, while refreshing the medium every 24 hours)."}, "[6]": {"tested_on": "human skin grafted onto beige-SCID mice injected with NK/T cells from psoriatic patients", "assay": "Chimeric human-mouse psoriasis model, histology", "format": "in vivo", "details": "intralesional, histology two weeks after the treatment", "protocol": "To assess the effect of IGFBP7 on psoriasis, the present inventors used a chimeric mouse model (FIG. 23). The model is based on the use of normal skin from healthy controls that is grafted onto beige-SCID mice. The grafts are then injected with NK/T cells isolated from psoriatic patients (Gilhar et al., 2002).\nIn the experimental system used herein, two weeks after NK injection (6 weeks after engraftment) 3 groups of mice were treated with intralesional PBS, topical dexamethasone and intralesional IGFBP7. The effect of the treatment was monitored by histology analysis two weeks after the treatment (8 weeks after engraftment)."}, "[7]": {"tested_on": "primary keratinocyte cells", "assay": "Effect of rIGFBP7 on differentiation of primary keratinocytes", "format": "cell-based, human", "details": "data not shown", "description": "To confirm the involvement of IGFBP7 in the regulation of keratinocyte proliferation and differentiation, the present inventors examined the effect of recombinant human IGFBP7 polypeptide (rIGFBP7) on primary keratinocyte cells."}, "[8]": {"details": "1.8 μg/μl rIGFBP7 for 72 hours, then 12 hours in medium lacking rIGFBP7"}},
  "note": "d = 2'-deoxy (DNA); r = 2'-OH (RNA)",
  "data": [
    {"compound": "IGFBP7 specific siRNA: siRNA IGFBP7 duplex of SEQ ID NO:32 and SEQ ID NO:33 (Sigma-Proligo) (chain 1 GCUGGUAUCUCCUCUAAGUTT; chain 2 ACUUAGAGGAGAUACCAGCTT; sugars from the 5' end r19 d2, backbone not given here)", "values": [
      {"measurement": "H&E histological changes", "setting": "[1]", "result": "abnormal stratification, absence of granular layer, parakeratosis and marked hyperkeratosis"},
      {"measurement": "cell viability (MTT assay)", "setting": "[2]; primary keratinocytes, 24 and 48 hours post transfection", "result": "more viable and proliferative"},
      {"measurement": "TNF-α-induced cell apoptosis (TUNEL assay)", "setting": "[3]; primary keratinocytes transiently transfected, 10 ng/μl recombinant TNF-α", "result": "prevented TNF-α-induced cell apoptosis"},
      {"measurement": "cell viability (MTT assay)", "setting": "HaCat cells", "result": "more viable and proliferative"},
      {"measurement": "duration of the siRNA effect", "setting": "IGFBP7; organotypic skin model, data not shown", "result": "at least 7 days"},
      {"measurement": "IGFBP7 expression relative to normal level", "setting": "IGFBP7; skin equivalents, day 7, data not shown", "result": "less than 60%"},
      {"measurement": "cell proliferation (BrDu assay)", "setting": "[4]; primary keratinocytes, 24 hours post transfection", "result": "more viable and proliferative"}
    ]},
    {"compound": "COc1cccc(-c2cc(=O)c3ccccc3o2)c1N", "note": "[PD98059]", "values": [
      {"measurement": "keratinocyte proliferation induced by IGFBP7 down-regulation", "setting": "[5]", "result": "prevented the induction of keratinocyte proliferation"}
    ]},
    {"compound": "rIGFBP7: human recombinant IGFBP7 polypeptide (R&D systems Inc. Catalogue No. 1334-B7-025)", "values": [
      {"measurement": "mice with features of psoriasis on histology", "setting": "[6]", "result": "one animal only showed features of psoriasis on histology"},
      {"measurement": "mice with full recovery on histology", "setting": "[6]", "result": "three mice showed full recovery"},
      {"measurement": "mice with partial recovery on histology", "setting": "[6]", "result": "one mouse recovered partially (50%)"},
      {"measurement": "mononuclear infiltrating cells in the dermis", "setting": "[6]", "result": "could still be seen in the dermis albeit in smaller numbers"},
      {"measurement": "cell differentiation", "setting": "[7]", "result": "lacked significant effect on cell differentiation"},
      {"measurement": "viable cell counts (MTT assay)", "setting": "[2]; [8]", "result": "decrease in viable cell counts"},
      {"measurement": "keratinocyte apoptosis (TUNEL assay)", "setting": "[3]; 1.8 μg/μl rIGFBP7 for 72 hours, then 12 hours in medium lacking rIGFBP7, TNF-α-mediated", "result": "increase in keratinocyte apoptosis"},
      {"measurement": "cell proliferation (BrDu assay)", "setting": "[4]; [8]", "result": "decrease in cell proliferation"}
    ]}
  ]
}
